According to US20240228504A1, “SUBSTITUTED TRICYCLIC AMIDES, ANALOGUES THEREOF, AND METHODS USING SAME” (Arbutus Biopharma Corporation, priority 2020, published 2024):

System: HBV rcDNA in HepDE19 cells
Experiment: HepDE19 assay with bDNA quantitation of HBV rcDNA
Type: cell-based, hepatitis B virus
Conditions: Hepatitis B virus, HepDE19, HepDE19 assay, inhibition of rcDNA formation, bDNA quantitation; read-out: DE-19bDNA EC50

| SMILES | EC50 [nM] |
| --- | --- |
| CN(C(=O)c1csc(Br)c1)[C@@H]1COCc2[nH]c(=O)c3cc(F)c(F)cc3c21 [Compound 194, (S)-5-Bromo-N-(8,9-difluoro-6-oxo-1,4,5,6-tetrahydro-2H-pyrano[3,4-c]isoquinolin-1-yl)-N-methylthiophene-3-carboxamide] | 70 |
| CN(C(=O)C1Cc2ccccc2C1)[C@@H]1COCc2[nH]c(=O)c3cc(F)c(F)cc3c21 [Compound 195, (S)-N-(8,9-Difluoro-6-oxo-1,4,5,6-tetrahydro-2H-pyrano[3,4-c]isoquinolin-1-yl)-N-methyl-2,3-dihydro-1H-indene-2-carboxamide] | 150 |
| CN(C(=O)c1cnn(C(C)(C)C)c1)[C@@H]1COCc2[nH]c(=O)c3cc(F)c(F)cc3c21 [Compound 196, (S)-1-(tert-Butyl)-N-(8,9-difluoro-6-oxo-1,4,5,6-tetrahydro-2H-pyrano[3,4-c]isoquinolin-1-yl)-N-methyl-1H-pyrazole-4-carboxamide] | 3100 |
| CN(C(=O)c1cnn(C(F)(F)F)c1)[C@@H]1COCc2[nH]c(=O)c3cc(F)c(F)cc3c21 [Compound 197, (S)-N-(8,9-Difluoro-6-oxo-1,4,5,6-tetrahydro-2H-pyrano[3,4-c]isoquinolin-1-yl)-N-methyl-1-(trifluoromethyl)-1H-pyrazole-4-carboxamide] | 440 |
| CN(C(=O)c1cc(Br)c[nH]1)[C@@H]1COCc2[nH]c(=O)c3cc(F)c(F)cc3c21 [Compound 198, (S)-4-Bromo-N-(8,9-difluoro-6-oxo-1,4,5,6-tetrahydro-2H-pyrano[3,4-c]isoquinolin-1-yl)-N-methyl-1H-pyrrole-2-carboxamide] | 220 |
| CN(C(=O)c1ccc(Cl)c(=O)[nH]1)[C@@H]1COCc2[nH]c(=O)c3cc(F)c(F)cc3c21 [Compound 201, (S)-5-Chloro-N-(8,9-difluoro-6-oxo-1,4,5,6-tetrahydro-2H-pyrano[3,4-c]isoquinolin-1-yl)-N-methyl-6-oxo-1,6-dihydropyridine-2-carboxamide] | 10000 |
| CN(C(=O)c1cc2cc(Cl)ncc2[nH]1)[C@@H]1COCc2[nH]c(=O)c3cc(F)c(F)cc3c21 [Compound 204, (S)-5-Chloro-N-(8,9-difluoro-6-oxo-1,4,5,6-tetrahydro-2H-pyrano[3,4-c]isoquinolin-1-yl)-N-methyl-1H-pyrrolo[2,3-c]pyridine-2-carboxamide] | 40 |
| CN(C(=O)c1c[nH]c(=O)c(Br)c1)[C@@H]1COCc2[nH]c(=O)c3cc(F)c(F)cc3c21 [Compound 205, (S)-5-Bromo-N-(8,9-difluoro-6-oxo-1,4,5,6-tetrahydro-2H-pyrano[3,4-c]isoquinolin-1-yl)-N-methyl-6-oxo-1,6-dihydropyridine-3-carboxamide] | 15800 |
| CN(C(=O)c1cc2nc(Cl)ccc2[nH]1)[C@@H]1COCc2[nH]c(=O)c3cc(F)c(F)cc3c21 [Compound 206, (S)-5-Chloro-N-(8,9-difluoro-6-oxo-1,4,5,6-tetrahydro-2H-pyrano[3,4-c]isoquinolin-1-yl)-N-methyl-1H-pyrrolo[3,2-b]pyridine-2-carboxamide] | 630 |
| CN(C(=O)C1(O)CCCCC1)[C@@H]1COCc2[nH]c(=O)c3cc(F)c(F)cc3c21 [Compound 211, (S)-N-(8,9-Difluoro-6-oxo-1,4,5,6-tetrahydro-2H-pyrano[3,4-c]isoquinolin-1-yl)-1-hydroxy-N-methylcyclohexane-1-carboxamide] | 7660 |
| CN(C(=O)c1cc2cc(F)c(C(F)F)cc2[nH]1)[C@@H]1COCc2[nH]c(=O)c3cc(F)c(F)cc3c21 [Compound 212, (S)-N-(8,9-Difluoro-6-oxo-1,4,5,6-tetrahydro-2H-pyrano[3,4-c]isoquinolin-1-yl)-6-(difluoromethyl)-5-fluoro-N-methyl-1H-indole-2-carboxamide] | 10 |
| CN(C(=O)c1cc2cc(Br)ncc2[nH]1)[C@@H]1COCc2[nH]c(=O)c3cc(F)c(F)cc3c21 [Compound 213, (S)-5-Bromo-N-(8,9-difluoro-6-oxo-1,4,5,6-tetrahydro-2H-pyrano[3,4-c]isoquinolin-1-yl)-N-methyl-1H-pyrrolo[2,3-c]pyridine-2-carboxamide] | 80 |
| CN(C(=O)c1cc2cc(C(F)(F)F)cnc2[nH]1)[C@@H]1COCc2[nH]c(=O)c3cc(F)c(F)cc3c21 [Compound 214, (S)-N-(8,9-difluoro-6-oxo-1,4,5,6-tetrahydro-2H-pyrano[3,4-c]isoquinolin-1-yl)-N-methyl-5-(trifluoromethyl)-1H-pyrrolo[2,3-b]pyridine-2-carboxamide] | 1000 |
| CN(C(=O)c1c[nH]c(=O)c(Cl)c1)[C@@H]1COCc2[nH]c(=O)c3cc(F)c(F)cc3c21 [Compound 215, (S)-5-Chloro-N-(8,9-difluoro-6-oxo-1,4,5,6-tetrahydro-2H-pyrano[3,4-c]isoquinolin-1-yl)-N-methyl-6-oxo-1,6-dihydropyridine-3-carboxamide] | 20100 |
| CN(C(=O)c1ccc(Br)c(=O)[nH]1)[C@@H]1COCc2[nH]c(=O)c3cc(F)c(F)cc3c21 [Compound 216, (S)-5-Bromo-N-(8,9-difluoro-6-oxo-1,4,5,6-tetrahydro-2H-pyrano[3,4-c]isoquinolin-1-yl)-N-methyl-6-oxo-1,6-dihydropyridine-2-carboxamide] | 7300 |
| CN(C(=O)c1cc2nc(C(F)(F)F)ccc2[nH]1)[C@@H]1COCc2[nH]c(=O)c3cc(F)c(F)cc3c21 [Compound 219, (S)-N-(8,9-difluoro-6-oxo-1,4,5,6-tetrahydro-2H-pyrano[3,4-c]isoquinolin-1-yl)-N-methyl-5-(trifluoromethyl)-1H-pyrrolo[3,2-b]pyridine-2-carboxamide] | 1440 |
| CN(C(=O)c1cc2ccc(F)cn2c1)[C@@H]1COCc2[nH]c(=O)c3cc(F)c(F)cc3c21 [Compound 224, (S)-N-(8,9-Difluoro-6-oxo-1,4,5,6-tetrahydro-2H-pyrano[3,4-c]isoquinolin-1-yl)-6-fluoro-N-methylindolizine-2-carboxamide] | 10 |
| CN(C(=O)c1cnc(C(F)(F)F)[nH]1)[C@@H]1COCc2[nH]c(=O)c3cc(F)c(F)cc3c21 [Compound 225, (S)-N-(8,9-Difluoro-6-oxo-1,4,5,6-tetrahydro-2H-pyrano[3,4-c]isoquinolin-1-yl)-N-methyl-2-(trifluoromethyl)-1H-imidazole-5-carboxamide] | 13000 |
| CN(C(=O)c1c[nH]c(=O)c(F)c1)[C@@H]1COCc2[nH]c(=O)c3cc(F)c(F)cc3c21 [Compound 226, (S)-N-(8,9-Difluoro-6-oxo-1,4,5,6-tetrahydro-2H-pyrano[3,4-c]isoquinolin-1-yl)-5-fluoro-N-methyl-6-oxo-1,6-dihydropyridine-3-carboxamide] | 12500 |
| CN(C(=O)c1ccc2cccn2c1)[C@@H]1COCc2[nH]c(=O)c3cc(F)c(F)cc3c21 [Compound 227, (S)-N-(8,9-Difluoro-6-oxo-1,4,5,6-tetrahydro-2H-pyrano[3,4-c]isoquinolin-1-yl)-N-methylindolizine-6-carboxamide] | 20 |
| CN(C(=O)c1ccn2cccc2c1)[C@@H]1COCc2[nH]c(=O)c3cc(F)c(F)cc3c21 [Compound 228, (S)-N-(8,9-Difluoro-6-oxo-1,4,5,6-tetrahydro-2H-pyrano[3,4-c]isoquinolin-1-yl)-N-methylindolizine-7-carboxamide] | 60 |
| CN(C(=O)C(O)(c1ccccc1)c1ccccc1)[C@@H]1COCc2[nH]c(=O)c3cc(F)c(F)cc3c21 [Compound 229, (S)-N-(8,9-Difluoro-6-oxo-1,4,5,6-tetrahydro-2H-pyrano[3,4-c]isoquinolin-1-yl)-2-hydroxy-N-methyl-2,2-diphenylacetamide] | 8400 |
| CN(C(=O)c1cc2c(C(F)F)cc(F)cc2[nH]1)[C@@H]1COCc2[nH]c(=O)c3cc(F)c(F)cc3c21 [Compound 230, (S)-N-(8,9-Difluoro-6-oxo-1,4,5,6-tetrahydro-2H-pyrano[3,4-c]isoquinolin-1-yl)-4-(difluoromethyl)-6-fluoro-N-methyl-1H-indole-2-carboxamide] | 10 |
| CN(C(=O)c1cc2cc(F)ccn2c1)[C@@H]1COCc2[nH]c(=O)c3cc(F)c(F)cc3c21 [Compound 231, (S)-N-(8,9-Difluoro-6-oxo-1,4,5,6-tetrahydro-2H-pyrano[3,4-c]isoquinolin-1-yl)-7-fluoro-N-methylindolizine-2-carboxamide] | 10 |
| CN(C(=O)c1cc2nc(F)ccc2[nH]1)[C@@H]1COCc2[nH]c(=O)c3cc(F)c(F)cc3c21 [Compound 232, (S)-N-(8,9-Difluoro-6-oxo-1,4,5,6-tetrahydro-2H-pyrano[3,4-c]isoquinolin-1-yl)-5-fluoro-N-methyl-1H-pyrrolo[3,2-b]pyridine-2-carboxamide] | 70 |
| CN(C(=O)C1Cc2cc(F)c(F)cc2C1)[C@@H]1COCc2[nH]c(=O)c3cc(F)c(F)cc3c21 [Compound 233, (S)-N-(8,9-Difluoro-6-oxo-1,4,5,6-tetrahydro-2H-pyrano[3,4-c]isoquinolin-1-yl)-5,6-difluoro-N-methyl-2,3-dihydro-1H-indene-2-carboxamide] | 40 |
| CN(C(=O)c1cnn(-c2ccc(F)cc2)c1)[C@@H]1COCc2[nH]c(=O)c3cc(F)c(F)cc3c21 [Compound 234, (S)-N-(8,9-Difluoro-6-oxo-1,4,5,6-tetrahydro-2H-pyrano[3,4-c]isoquinolin-1-yl)-1-(4-fluorophenyl)-N-methyl-1H-pyrazole-4-carboxamide] | 10500 |
| CN(C(=O)c1cc(-c2ccc(F)cc2)no1)[C@@H]1COCc2[nH]c(=O)c3cc(F)c(F)cc3c21 [Compound 236, (S)-N-(8,9-Difluoro-6-oxo-1,4,5,6-tetrahydro-2H-pyrano[3,4-c]isoquinolin-1-yl)-3-(4-fluorophenyl)-N-methylisoxazole-5-carboxamide] | 15100 |
| CN(C(=O)c1ccc(Oc2cccc(F)c2)cc1)[C@@H]1COCc2[nH]c(=O)c3cc(F)c(F)cc3c21 [Compound 237, (S)-N-(8,9-Difluoro-6-oxo-1,4,5,6-tetrahydro-2H-pyrano[3,4-c]isoquinolin-1-yl)-4-(3-fluorophenoxy)-N-methylbenzamide] | 6900 |
